Laboratory results published in patent publication US20230391845A1, “GLP-1, GIP AND GLUCAGON RECEPTOR TRIPLE AGONISTS” (priority 2020, published 2023).
Read-outs that look alike come from different tables or passages of the source. *1 amine or outer side, *2 acyl side, *3 side chain or, on linkers, in order; H or OH if unused. Where a SMILES comes first, the peptide text is derived from it. Side-chain parts run from the residue outwards. [ ]: non-standard residue; d: D form. The star is where a group is joined. C18 diacid = O=C(O)CCCCCCCCCCCCCCCCC(=O)*; γGlu = O=C(O)[C@H](CCC(=O)[*:2])N[*:1]; εLys = N[C@@H](CCCCN[*:1])C(=O)[*:2]; AEEA = NCCOCCOCC(=O)O; Aib = CC(C)(N)C(=O)O

Legend:
human GLP-1 receptor = molecular target: T1, human GLP-1 receptor (Homo sapiens, UniProt P43220); test: In vitro functional potency (CRE luciferase; whole cells), human GLP-1R; type: cell-based; details: BHK CRE luc2P hGLP-1R whole cells; for EC50: read-out: hGLP-1R CRE Luc EC50
T1 construct: expressed in transfected cells; host or cells: BHK cells (parent line BHKTS13) containing CRE luciferase
Protocol: (§1) The purpose of this example is to test the functional activity, or potency, of the compounds in vitro at the human and mouse GLP-1, GIP, and Gcg receptors. The in vitro functional potency is the measure of target receptor activation in a whole cell assay.
(§2) In vitro functional potency was determined by measuring the response of the target receptor in a reporter gene assay in individual cell lines. The assay was performed in stably transfected BHK cell lines that expresses one of the following G-protein coupled receptors: human GLP-1 receptor, human GIP receptor, human Gcg receptor, mouse GLP-1 receptor, mouse GIP receptor, or mouse Gcg receptor; and where each cell line contains the DNA for the cAMP response element (CRE) coupled to a promoter and the gene for firefly luciferase (CRE luciferase). When the respective receptor is activated, it results in the production of cAMP, which in turn results in expression of the luciferase protein. When assay incubation is completed, luciferase substrate (luciferin) is added resulting in the enzymatic conversion of luciferin to oxyluciferin and producing bioluminescence. The luminescence is measured as the readout for the assay.
(§3) The cells lines used in these assays were BHK cells with BHKTS13 as a parent cell line. The cell lines were derived from a clone containing the CRE luciferase element and were established by further transfection with the respective receptor to obtain the relevant cell line.
(§4) The cells were cultured at 37° C. with 5% CO2 in Cell Culture Medium. They were aliquoted and stored in liquid nitrogen. The cells were kept in continuous culture and were seeded out the day before each assay.
(§5) GLP-1R and GcgR Cell Culture Medium consisted of DMEM medium with 10% FBS, 500 µg/mL G418, and 300 µg/mL hygromycin. GIPR Cell Culture Medium consisted of DMEM medium with 10% FBS, 400 µg/mL G418, and 300 µg/mL hygromycin. Assay Buffer consisted of DMEM w/o phenol red, 10 mM Hepes, 1× Glutamax, 1% ovalbumin, and 0.1% Pluronic F-68.
(§6) • 1) Cells were plated at 5000 cells/well and incubated overnight in the assay plate. • 2) Cells were washed once in DPBS. • 3) Stocks of the test compounds and reference compounds in concentrations ranging from 100-300 pM were diluted 1:150 in Assay Buffer.
(§7) The data from the microtiter plate reader was first regressed in an Excel in order to calculate the x-axis, log scale concentrations based on the individual test compound's stock concentration and the dilutions of the assay. […] The software performs a non-linear regression (log(agonist) vs response). A minimum of two replicates was measured for each sample. The reported values are averages of the replicates.

[1] = Pharmacokinetic study in minipigs, i.v. administration; set-up: species or system Göttingen minipigs; details: female, Göttingen, minipig, in vivo, iv
Outline: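 Female Göttingen minipigs (7-14 months, 16-35 kg), fasted ~18 h pre-dose to 4 h post-dose, received i.v. injections of usually 1.5-2 nmol/kg via central venous catheter. Plasma sampled up to 14 days, assayed by ELISA or LCMS; terminal half-life (harmonic mean) from non-compartmental analysis.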

human Gcg receptor = molecular target: T2, human Gcg receptor (Homo sapiens, UniProt P47871); test: In vitro functional potency (CRE luciferase; whole cells), human GcgR; type: cell-based; details: BHK CRE luc2P hGcgR whole cells; for EC50: read-out: hGcgR CRE Luc EC50
T2 construct: expressed in transfected cells; host or cells: BHK cells (parent line BHKTS13) containing CRE luciferase
Protocol: as §1, §2, §3, §4, §5, §6, §7

human GIP receptor = molecular target: T3, human GIP receptor (Homo sapiens, UniProt P48546); test: In vitro functional potency (CRE luciferase; whole cells), human GIPR; type: cell-based; details: BHK CRE luc2P hGIPR whole cells, Table 1, position of substituent varied; for EC50: read-out: hGIPR CRE Luc EC50
T3 construct: expressed in transfected cells; host or cells: BHK cells (parent line BHKTS13) containing CRE luciferase
T3 sequence (P48546 22-466): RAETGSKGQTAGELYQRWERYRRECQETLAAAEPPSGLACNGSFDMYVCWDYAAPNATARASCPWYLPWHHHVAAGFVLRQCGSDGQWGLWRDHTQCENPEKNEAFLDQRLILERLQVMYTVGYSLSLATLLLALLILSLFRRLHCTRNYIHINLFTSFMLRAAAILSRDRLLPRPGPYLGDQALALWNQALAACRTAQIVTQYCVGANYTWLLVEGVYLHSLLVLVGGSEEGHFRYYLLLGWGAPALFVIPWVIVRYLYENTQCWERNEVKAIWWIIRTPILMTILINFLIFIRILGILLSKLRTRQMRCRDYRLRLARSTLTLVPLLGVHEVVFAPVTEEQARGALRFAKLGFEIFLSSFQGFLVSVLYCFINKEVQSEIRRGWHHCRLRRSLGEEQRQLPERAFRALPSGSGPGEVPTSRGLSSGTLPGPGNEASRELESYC

[2] = Table 1, position of substituent varied

T2 sequence (P47871 26-477): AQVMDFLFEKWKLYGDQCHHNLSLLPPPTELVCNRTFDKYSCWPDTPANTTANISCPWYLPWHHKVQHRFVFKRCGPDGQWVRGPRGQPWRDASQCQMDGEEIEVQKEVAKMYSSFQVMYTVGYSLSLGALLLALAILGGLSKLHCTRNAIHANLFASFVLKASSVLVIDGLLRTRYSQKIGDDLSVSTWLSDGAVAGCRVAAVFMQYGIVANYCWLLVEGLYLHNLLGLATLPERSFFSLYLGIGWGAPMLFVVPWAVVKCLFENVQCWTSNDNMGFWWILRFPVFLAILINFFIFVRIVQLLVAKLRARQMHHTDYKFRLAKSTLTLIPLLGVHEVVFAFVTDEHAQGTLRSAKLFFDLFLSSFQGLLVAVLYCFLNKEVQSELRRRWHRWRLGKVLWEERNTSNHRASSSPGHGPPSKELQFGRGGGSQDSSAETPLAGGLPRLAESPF
T1 sequence (P43220 24-463): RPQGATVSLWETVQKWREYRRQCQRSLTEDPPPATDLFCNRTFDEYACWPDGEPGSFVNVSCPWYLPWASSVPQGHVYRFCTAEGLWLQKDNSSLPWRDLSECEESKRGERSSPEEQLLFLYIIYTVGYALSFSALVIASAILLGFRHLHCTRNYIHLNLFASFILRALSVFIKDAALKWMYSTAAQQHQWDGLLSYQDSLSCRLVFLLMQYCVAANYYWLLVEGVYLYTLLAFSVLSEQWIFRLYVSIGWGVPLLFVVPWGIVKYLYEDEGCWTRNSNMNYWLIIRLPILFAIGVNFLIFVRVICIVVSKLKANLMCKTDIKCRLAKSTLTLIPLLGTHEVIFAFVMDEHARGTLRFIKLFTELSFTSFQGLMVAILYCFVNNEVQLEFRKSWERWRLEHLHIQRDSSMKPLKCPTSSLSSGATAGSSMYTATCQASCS

## CC[C@H](C)[C@H](NC(=O)[C@H](CO)NC(=O)[C@H](Cc1ccc(O)cc1)NC(=O)[C@H](CC(=O)O)NC(=O)[C@H](CO)NC(=O)[C@@H](NC(=O)[C@H](Cc1ccccc1)NC(=O)[C@@H](NC(=O)CNC(=O)[C@H](CCC(N)=O)NC(=O)C(C)(C)NC(=O)[C@@H](N)Cc1ccc(O)cc1)[C@@H](C)O)[C@@H](C)O)C(=O)N[C@@H](Cc1ccc(O)cc1)C(=O)N[C@@H](CC(C)C)C(=O)N[C@@H](CC(=O)O)C(=O)N[C@@H](CCCCN)C(=O)N[C@@H](CCC(N)=O)C(=O)N[C@@H](C)C(=O)N[C@@H](C)C(=O)NC(C)(C)C(=O)N[C@@H](CCCCNC(=O)COCCOCCNC(=O)COCCOCCNC(=O)CC[C@H](NC(=O)CCCCCCCCCCCCCCCCC(=O)O)C(=O)O)C(=O)N[C@@H](Cc1ccccc1)C(=O)N[C@H](C(=O)N[C@@H](CC(N)=O)C(=O)N[C@@H](Cc1c[nH]c2ccccc12)C(=O)N[C@@H](CC(C)C)C(=O)N[C@@H](CC(C)C)C(=O)N[C@@H](C)C(=O)NCC(=O)NCC(=O)N1CCC[C@H]1C(=O)N[C@@H](CO)C(=O)N[C@@H](CO)C(=O)NCC(=O)N[C@@H](C)C(=O)N1CCC[C@H]1C(=O)N1CCC[C@H]1C(=O)N1CCC[C@H]1C(=O)N[C@@H](CO)C(N)=O)C(C)C [Compound No. 3] (H-Y[Aib]QGTFTSDYSIYLDKQAA[Aib]K([AEEA-AEEA-γGlu-C18 diacid])FVNWLLAGGPSSGAPPPS-NH2; N-terminus assumed)
Human GLP-1 receptor; [2]
  EC50: 0.0054 nM
[1]
  half-life: 33 h
Human Gcg receptor; [2]
  EC50: 0.0347 nM
Human GIP receptor
  EC50: 0.0275 nM

## CC[C@H](C)[C@H](NC(=O)[C@H](CO)NC(=O)[C@H](Cc1ccc(O)cc1)NC(=O)[C@H](CC(=O)O)NC(=O)[C@H](CO)NC(=O)[C@@H](NC(=O)[C@H](Cc1ccccc1)NC(=O)[C@@H](NC(=O)CNC(=O)[C@H](CCC(N)=O)NC(=O)C(C)(C)NC(=O)[C@@H](N)Cc1ccc(O)cc1)[C@@H](C)O)[C@@H](C)O)C(=O)N[C@@H](Cc1ccc(O)cc1)C(=O)N[C@@H](CC(C)C)C(=O)N[C@@H](CC(=O)O)C(=O)N[C@@H](CCCCNC(=O)COCCOCCNC(=O)COCCOCCNC(=O)CC[C@H](NC(=O)CCCCCCCCCCCCCCCCC(=O)O)C(=O)O)C(=O)N[C@@H](CCC(N)=O)C(=O)N[C@@H](C)C(=O)N[C@@H](C)C(=O)NC(C)(C)C(=O)N[C@@H](CCC(=O)O)C(=O)N[C@@H](Cc1ccccc1)C(=O)N[C@H](C(=O)N[C@@H](CC(N)=O)C(=O)N[C@@H](Cc1c[nH]c2ccccc12)C(=O)N[C@@H](CC(C)C)C(=O)N[C@@H](CC(C)C)C(=O)N[C@@H](C)C(=O)NCC(=O)NCC(=O)N1CCC[C@H]1C(=O)N[C@@H](CO)C(=O)N[C@@H](CO)C(=O)NCC(=O)N[C@@H](C)C(=O)N1CCC[C@H]1C(=O)N1CCC[C@H]1C(=O)N1CCC[C@H]1C(=O)N[C@@H](CO)C(N)=O)C(C)C [Compound No. 1] (H-Y[Aib]QGTFTSDYSIYLDK([AEEA-AEEA-γGlu-C18 diacid])QAA[Aib]EFVNWLLAGGPSSGAPPPS-NH2; N-terminus assumed)
Human GLP-1 receptor; [2]
  EC50: 0.0086 nM
[1]
  half-life: 61 h
Human Gcg receptor; [2]
  EC50: 0.157 nM
Human GIP receptor
  EC50: 0.0237 nM

## CC[C@H](C)[C@H](NC(=O)[C@H](CO)NC(=O)[C@H](Cc1ccc(O)cc1)NC(=O)[C@H](CC(=O)O)NC(=O)[C@H](CO)NC(=O)[C@@H](NC(=O)[C@H](Cc1ccccc1)NC(=O)[C@@H](NC(=O)CNC(=O)[C@H](Cc1c[nH]cn1)NC(=O)C(C)(C)NC(=O)[C@@H](N)Cc1c[nH]cn1)[C@@H](C)O)[C@@H](C)O)C(=O)N[C@@H](Cc1ccc(O)cc1)C(=O)N[C@@H](CC(C)C)C(=O)N[C@@H](CCC(=O)O)C(=O)N[C@@H](CCCCNC(=O)[C@@H](N)CCCCNC(=O)[C@@H](N)CCCCNC(=O)CC[C@H](NC(=O)CCCCCCCCCCCCCCCCC(=O)O)C(=O)O)C(=O)N[C@@H](CCCCN)C(=O)N[C@@H](Cc1ccc(O)cc1)C(=O)N[C@@H](C)C(=O)NC(C)(C)C(=O)N[C@@H](CCC(=O)O)C(=O)N[C@@H](Cc1ccccc1)C(=O)N[C@H](C(=O)N[C@@H](CCC(N)=O)C(=O)N[C@@H](Cc1c[nH]c2ccccc12)C(=O)N[C@@H](CC(C)C)C(=O)N[C@@H](CC(C)C)C(=O)N[C@@H](CCC(=O)O)C(=O)NCC(=O)NCC(=O)N1CCC[C@H]1C(=O)N[C@@H](CO)C(=O)N[C@@H](CO)C(=O)NCC(=O)N[C@@H](C)C(=O)N1CCC[C@H]1C(=O)N1CCC[C@H]1C(=O)N1CCC[C@H]1C(=O)N[C@@H](CO)C(N)=O)C(C)C [Compound No. 38] (H-H[Aib]HGTFTSDYSIYLEK([εLys-εLys-γGlu-C18 diacid])KYA[Aib]EFVQWLLEGGPSSGAPPPS-NH2)
Human GLP-1 receptor; Table 2
  EC50: 0.0028 nM
Human Gcg receptor; Table 2
  EC50: 0.0064 nM

## CC[C@H](C)[C@H](NC(=O)[C@H](CO)NC(=O)[C@H](Cc1ccc(O)cc1)NC(=O)[C@H](CC(=O)O)NC(=O)[C@H](CO)NC(=O)[C@@H](NC(=O)[C@H](Cc1ccccc1)NC(=O)[C@@H](NC(=O)CNC(=O)[C@H](CCC(N)=O)NC(=O)C(C)(C)NC(=O)[C@@H](N)Cc1ccc(O)cc1)[C@@H](C)O)[C@@H](C)O)C(=O)N[C@@H](Cc1ccc(O)cc1)C(=O)N[C@@H](CC(C)C)C(=O)N[C@@H](CC(=O)O)C(=O)N[C@@H](CCCCN)C(=O)N[C@@H](CCCCNC(=O)COCCOCCNC(=O)COCCOCCNC(=O)CC[C@H](NC(=O)CCCCCCCCCCCCCCCCC(=O)O)C(=O)O)C(=O)N[C@@H](C)C(=O)N[C@@H](C)C(=O)NC(C)(C)C(=O)N[C@@H](CCC(=O)O)C(=O)N[C@@H](Cc1ccccc1)C(=O)N[C@H](C(=O)N[C@@H](CC(N)=O)C(=O)N[C@@H](Cc1c[nH]c2ccccc12)C(=O)N[C@@H](CC(C)C)C(=O)N[C@@H](CC(C)C)C(=O)N[C@@H](C)C(=O)NCC(=O)NCC(=O)N1CCC[C@H]1C(=O)N[C@@H](CO)C(=O)N[C@@H](CO)C(=O)NCC(=O)N[C@@H](C)C(=O)N1CCC[C@H]1C(=O)N1CCC[C@H]1C(=O)N1CCC[C@H]1C(=O)N[C@@H](CO)C(N)=O)C(C)C [Compound No. 2] (H-Y[Aib]QGTFTSDYSIYLDKK([AEEA-AEEA-γGlu-C18 diacid])AA[Aib]EFVNWLLAGGPSSGAPPPS-NH2; N-terminus assumed)
Human GLP-1 receptor; [2]
  EC50: 0.0071 nM
[1]
  half-life: 45 h
Human Gcg receptor; [2]
  EC50: 0.0476 nM
Human GIP receptor
  EC50: 0.0498 nM

## CC[C@H](C)[C@H](NC(=O)[C@H](CO)NC(=O)[C@H](Cc1ccc(O)cc1)NC(=O)[C@H](CC(=O)O)NC(=O)[C@H](CO)NC(=O)[C@@H](NC(=O)[C@H](Cc1ccccc1)NC(=O)[C@@H](NC(=O)CNC(=O)[C@H](CCC(N)=O)NC(=O)C(C)(C)NC(=O)[C@@H](N)Cc1ccc(O)cc1)[C@@H](C)O)[C@@H](C)O)C(=O)N[C@@H](Cc1ccc(O)cc1)C(=O)N[C@@H](CC(C)C)C(=O)N[C@@H](CC(=O)O)C(=O)N[C@@H](CCCCN)C(=O)N[C@@H](CCC(N)=O)C(=O)N[C@@H](C)C(=O)N[C@@H](C)C(=O)NC(C)(C)C(=O)N[C@@H](CCC(=O)O)C(=O)N[C@@H](Cc1ccccc1)C(=O)N[C@H](C(=O)N[C@@H](CC(N)=O)C(=O)N[C@@H](Cc1c[nH]c2ccccc12)C(=O)N[C@@H](CC(C)C)C(=O)N[C@@H](CC(C)C)C(=O)N[C@@H](C)C(=O)NCC(=O)NCC(=O)N1CCC[C@H]1C(=O)N[C@@H](CO)C(=O)N[C@@H](CO)C(=O)NCC(=O)N[C@@H](C)C(=O)N1CCC[C@H]1C(=O)N1CCC[C@H]1C(=O)N1CCC[C@H]1C(=O)N[C@@H](CO)C(=O)N[C@@H](CCCCNC(=O)COCCOCCNC(=O)COCCOCCNC(=O)CC[C@H](NC(=O)CCCCCCCCCCCCCCCCC(=O)O)C(=O)O)C(N)=O)C(C)C [Compound No. 59, reference compound] (H-Y[Aib]QGTFTSDYSIYLDKQAA[Aib]EFVNWLLAGGPSSGAPPPSK([AEEA-AEEA-γGlu-C18 diacid])-NH2; N-terminus assumed)
Human GLP-1 receptor; [2]
  hGLP-1R CRE Luc EC50 (pM): lower potency
Human Gcg receptor; [2]
  hGcgR CRE Luc EC50 (pM): lower potency
Human GIP receptor
  hGIPR CRE Luc EC50 (pM): lower potency
